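The compound was tested at five concentrations on cells cultured in 96-well plates, with a 48-hour exposure period. At the TGI there is no net growth.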
Columns and labels:
Assay in all cases: DTP human tumour cell line panel, 48 h
[1] = tested on: IGROV1 ovarian
[2] = tested on: A498 renal
[3] = tested on: RPMI-8226 leukemia
[4] = tested on: KM20L2 colon
[5] = tested on: MOLT-4 leukemia
[6] = tested on: COLO 205 colon
[7] = tested on: EKVX NSCLC
[8] = tested on: RXF-631 renal
[9] = tested on: 786-0 renal
[10] = tested on: OVCAR-4 ovarian
[11] = tested on: U251 CNS
[12] = tested on: LOX IMVI melanoma
[13] = tested on: SR leukemia
[14] = tested on: SNB-78 CNS
[15] = tested on: TK-10 renal
[16] = tested on: ACHN renal
[17] = tested on: M14 melanoma
[18] = tested on: KM12 colon
[19] = tested on: XF 498 CNS
[20] = tested on: SK-MEL-2 melanoma
[21] = tested on: HCC-2998 colon
[22] = tested on: HOP-62 NSCLC
[23] = tested on: MALME-3M melanoma
[24] = tested on: CCRF-CEM leukemia
[25] = tested on: UACC-257 melanoma
[26] = tested on: DMS 114 small cell lung
[27] = tested on: NCI-H460 lung
[28] = tested on: SNB-75 CNS
[29] = tested on: LXFL 529 NSCLC
[30] = tested on: RXF 393 renal
[31] = tested on: OVCAR-8 ovarian
[32] = tested on: NCI-H226 lung
[33] = tested on: HL-60(TB) leukemia
[34] = tested on: SW-620 colon
[35] = tested on: HCT-116 colon
[36] = tested on: SN12C renal
[37] = tested on: SNB-19 CNS
[38] = tested on: A549 NSCLC
[39] = tested on: HCT-15 colon
[40] = tested on: SF-539 CNS
[41] = tested on: OVCAR-5 ovarian
[42] = tested on: OVCAR-3 ovarian
[43] = tested on: SF-268 CNS
[44] = tested on: UO-31 renal
[45] = tested on: HT29 colon
[46] = tested on: HOP-18 NSCLC
[47] = tested on: UACC-62 melanoma
[48] = tested on: CAKI-1 renal
[49] = tested on: NCI-H23 lung
[50] = tested on: HOP-92 NSCLC
[51] = tested on: K-562 leukemia
[52] = tested on: SK-MEL-28 melanoma
[53] = tested on: SF-295 CNS
[54] = tested on: M19-MEL melanoma
[55] = tested on: NCI-H522 lung
[56] = tested on: DMS 273 small cell lung
[57] = tested on: DLD-1 colon
[58] = tested on: SK-OV-3 ovarian

Measured: TGI

COc1ccc(C2=NNC(=O)OC2c2ccccc2)cc1 (stereo not drawn)
not listed: [55] | [56] | [57] | [58]
> 100 µM: all other assays above

COc1ccc(C(O)/C(=N\NC(N)=S)c2nc3ccc([N+](=O)[O-])cc3[nH]c2=O)cc1OC (stereo not drawn)
not listed: [13] | [14] | [35] | [36] | [37] | [39] | [40] | [42] | [48]
> 100 µM: all other assays above
